Data published in patent US11485733B2, “Azaquinoline derivatives” (BAYER ANIMAL HEALTH GMBH, priority 2017, dated 2022).

Experiments:
Dirofilaria immitis = Dirofilaria immitis (DIROIM L4) larval motility; details: 72 h, read-out: EC50 (reduction of motility)
[1] = tested on: Nippostrongylus brasiliensis; assay: Nippostrongylus brasiliensis (NIPOBR) adult worms, acetylcholine esterase readout; details: read-out: activity (reduction of AChE compared to negative control); for inhibition at 1 µg/mL: at 1 μg/ml (1 ppm); for inhibition at 10 µg/mL: at 10 μg/ml (10 ppm)
Experimental: In Vitro Assay 3: Nippostrongylus brasiliensis (NIPOBR)
Adult Nippostrongylus brasiliensis were washed with saline buffer containing 100 U/ml penicillin, 0.1 mg/ml streptomycin and 2.5 μg/ml amphotericin B. Test compounds were dissolved in DMSO and worms were incubated in medium in a final concentration of 10 μg/ml (10 ppm) respectively 1 μg/ml (1 ppm). An aliquot of the medium was used to determine the acetylcholine esterase activity in comparison to a negative control. The principle of measuring acetylcholine esterase as readout for anthelmintic activity was described in Rapson et al (1986) and Rapson et al (1987).

D. immitis Slo-1 = D. immitis Slo-1 (Dirofilaria immitis, UniProt I0DFK5); assay: D. immitis Slo-1, action at a recombinant CHO cell line (membrane potential, FLIPR); format: cell-based
D. immitis Slo-1, sequence (I0DFK5 1-1119): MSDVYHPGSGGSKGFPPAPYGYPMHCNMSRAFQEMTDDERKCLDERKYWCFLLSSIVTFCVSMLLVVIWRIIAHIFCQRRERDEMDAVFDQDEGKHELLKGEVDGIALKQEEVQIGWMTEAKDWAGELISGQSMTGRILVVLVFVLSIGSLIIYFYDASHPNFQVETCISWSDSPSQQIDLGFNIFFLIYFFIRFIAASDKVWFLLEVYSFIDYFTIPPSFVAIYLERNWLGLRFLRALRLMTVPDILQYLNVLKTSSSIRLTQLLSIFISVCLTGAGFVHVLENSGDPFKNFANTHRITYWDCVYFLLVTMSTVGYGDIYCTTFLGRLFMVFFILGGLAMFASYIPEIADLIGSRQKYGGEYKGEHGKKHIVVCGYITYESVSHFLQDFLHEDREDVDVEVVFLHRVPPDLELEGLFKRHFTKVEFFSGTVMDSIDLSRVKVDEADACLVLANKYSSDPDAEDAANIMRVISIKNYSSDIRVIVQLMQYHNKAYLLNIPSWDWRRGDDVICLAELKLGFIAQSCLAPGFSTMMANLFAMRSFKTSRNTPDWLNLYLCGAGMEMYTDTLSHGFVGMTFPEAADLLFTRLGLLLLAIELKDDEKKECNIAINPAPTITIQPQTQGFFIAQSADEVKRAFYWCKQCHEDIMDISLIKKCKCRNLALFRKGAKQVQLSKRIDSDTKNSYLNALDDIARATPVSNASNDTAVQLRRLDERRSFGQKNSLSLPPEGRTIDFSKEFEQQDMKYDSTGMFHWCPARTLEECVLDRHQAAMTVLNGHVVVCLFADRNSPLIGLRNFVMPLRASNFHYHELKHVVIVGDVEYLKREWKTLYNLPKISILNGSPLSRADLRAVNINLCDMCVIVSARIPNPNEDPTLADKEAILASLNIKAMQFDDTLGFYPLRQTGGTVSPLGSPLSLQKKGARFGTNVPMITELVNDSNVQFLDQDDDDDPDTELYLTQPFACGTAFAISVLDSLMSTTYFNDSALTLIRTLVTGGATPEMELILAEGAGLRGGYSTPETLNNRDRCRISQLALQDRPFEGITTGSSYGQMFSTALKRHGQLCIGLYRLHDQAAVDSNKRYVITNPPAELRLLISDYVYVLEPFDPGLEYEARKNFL

Haemonchus contortus = Haemonchus contortus larval mortality; details: 120 h, read-out: activity (percentage of larval mortality)
Experimental: In Vitro Assay 7: Haemonchus contortus
Solvent: Dimethyl Sulfoxide
Approximately 40 larvae of the red stomach worm (Haemonchus contortus) are transferred into a test tube containing compound solution.
After 5 days the percentage of larval mortality is recorded. 100% efficacy means all larvae are killed, 0% efficacy means no larvae are killed.

[2] = tested on: Dirofilaria immitis microfilariae; assay: Dirofilaria immitis microfilariae (DIROIM L1) motility; details: 72 h, read-out: EC50 (reduction of motility)
Cooperia curticei = Cooperia curticei larval mortality; details: 120 h, read-out: activity (percentage of larval mortality)
Experimental: In Vitro Assay 6: Cooperia curticei
Solvent: Dimethyl Sulfoxide
Approximately 40 nematode larvae (Cooperia curticei) are transferred into a test tube containing the compound solution.
After 5 days percentage of larval mortality is recorded. 100% efficacy means all larvae are killed; 0% efficacy means no larvae are killed.

C. elegans Slo-1a = C. elegans Slo-1a (Caenorhabditis elegans, UniProt Q95V25); details: pE50 (negative decadic logarithm of EC50), CHO cells expressing C. elegans Slo-1a; voltage sensitive dye, 70 mM KCl
C. elegans Slo-1a, sequence (Q95V25 whole entry): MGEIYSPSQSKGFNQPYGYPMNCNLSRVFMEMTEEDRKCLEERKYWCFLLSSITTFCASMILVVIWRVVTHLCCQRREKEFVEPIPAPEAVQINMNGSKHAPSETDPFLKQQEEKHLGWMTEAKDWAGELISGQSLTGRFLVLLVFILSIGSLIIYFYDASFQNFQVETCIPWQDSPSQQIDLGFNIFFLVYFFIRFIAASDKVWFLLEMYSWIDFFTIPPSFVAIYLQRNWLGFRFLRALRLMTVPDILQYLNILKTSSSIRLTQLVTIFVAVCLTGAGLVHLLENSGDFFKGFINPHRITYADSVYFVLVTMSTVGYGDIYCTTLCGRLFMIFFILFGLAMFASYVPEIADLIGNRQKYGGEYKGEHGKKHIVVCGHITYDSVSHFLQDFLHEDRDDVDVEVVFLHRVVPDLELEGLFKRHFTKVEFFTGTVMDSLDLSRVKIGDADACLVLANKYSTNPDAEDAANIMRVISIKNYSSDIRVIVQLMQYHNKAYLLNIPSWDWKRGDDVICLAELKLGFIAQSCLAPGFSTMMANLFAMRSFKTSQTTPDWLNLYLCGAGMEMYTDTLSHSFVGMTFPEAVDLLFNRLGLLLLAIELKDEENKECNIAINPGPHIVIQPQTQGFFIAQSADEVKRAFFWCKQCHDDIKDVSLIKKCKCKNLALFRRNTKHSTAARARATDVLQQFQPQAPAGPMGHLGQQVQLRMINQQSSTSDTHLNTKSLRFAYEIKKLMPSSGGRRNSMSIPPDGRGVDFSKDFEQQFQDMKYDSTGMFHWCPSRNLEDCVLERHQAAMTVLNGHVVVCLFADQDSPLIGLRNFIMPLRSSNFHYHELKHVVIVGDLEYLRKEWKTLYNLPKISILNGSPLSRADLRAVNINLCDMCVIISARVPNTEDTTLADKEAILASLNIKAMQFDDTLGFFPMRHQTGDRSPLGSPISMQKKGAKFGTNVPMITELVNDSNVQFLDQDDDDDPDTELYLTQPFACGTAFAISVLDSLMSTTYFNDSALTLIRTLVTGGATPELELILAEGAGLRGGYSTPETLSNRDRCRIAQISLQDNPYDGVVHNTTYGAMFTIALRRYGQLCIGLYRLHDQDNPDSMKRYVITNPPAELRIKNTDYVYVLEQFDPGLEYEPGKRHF
Experimental: Generation of a Stable C. elegans CHO Cell Line
A CHO cell line was obtained from ATCC, code ATCC CRL-9096. […] The transfection solution included 300 μL OptiMEM (Life Technologies, Nr.: 31985), 2 μL (=6 μg) of plasmid DNA containing the C. elegans Slo 1a gene and 9 μL FugeneHD (Promega, Nr.: E2311), and was added to the cells prior to incubation for 48 hours at 37° C., 5% CO2. The transfection medium was exchanged for the selection medium which contains additional G418 (2 mg/ml, Invitrogen, Nr.: 10131) and the cells were seeded into 384 well plates (300 cells/well). After a few weeks, the remaining surviving cells were tested with a voltage sensitive dye (Membrane Potential Assay Kit, Molecular Devices Nr.: R8034) for K+ channel expression. Positive cell clones were purified by the limited dilution technique. For this the clone with the highest and most robust signal in the voltage sensitive dye assay was further subcloned (incubated) in 384 well plates (0.7 cells/well) in order to obtain clonal purity. This generated a final stable CHO cell line expressing the C. elegans Slo-1a.
Cells were cultured at 37° C. and 5% CO2 in MEMalpha with Gutamax I (Invitrogen, Nr.: 32571), supplemented with 10% (v/v) heat inactivated fetal bovine serum (Invitrogen, Nr.: 10500), G418 (1 mg/ml, Invitrogen, Nr.: 10131). Cells were detached using Accutase (Sigma, Nr.: A6964).
Membrane Potential Measurements
Laboratory compound testing was performed on 384-well microtiter plates (MTPs, Greiner, Nr.: 781092). 8000 cells/well were plated onto 384-well MTPs and cultured for 20 to 24 hours at 37° C. and 5% CO2. After removal of the cell culture medium, the cells were washed once with tyrode (150 mM NaCl, 0.3 mM KCl, 2 mM CaCl2, 1 mM MgCl2, 0.8 mM NaH2PO4, 5 mM Glucose, 28 mM Hepes, pH 7.4) and then loaded with the voltage sensitive dye of the Membrane Potential Assay Kit diluted in tyrode for 1 h at room temperature.
After starting the measurement of fluorescence using a FLIPR Tetra (Molecular Devices, Exc. 510-545 nm, Emm. 565-625 nm), test compounds were added followed by the addition of KCl tyrode (final assay concentration: 70 mM KCl, 2 mM CaCl2, 1 mM MgCl2, 0.8 mM NaH2PO4, 5 mM Glucose, 28 mM Hepes, pH 7.4, including the voltage sensitive dye). The measurement was completed after 7 minutes.
The data were evaluated by using the ActivityBase XLfit software (IDBS) for curve fitting and calculation of the half-maximal effective concentration (EC50) and are reported as negative decadic logarithm (pE50).

Row | Compound | EC50 (Dirofilaria immitis) | inhibition at 1 µg/mL [1] | EC50 (D. immitis Slo-1) | mortality at 20 ppm (Haemonchus contortus) | EC50 [2] | mortality at 4 ppm (Cooperia curticei) | mortality at 20 ppm (Cooperia curticei) | EC50 (C. elegans Slo-1a) | inhibition at 10 µg/mL [1]
1 | O=C(N[C@H]1CCOc2ccccc21)c1cnc2c(-c3cc(Cl)cc(Cl)c3Cl)nccc2c1N1CCOCC1 [Example T1-6, N-[(4S)-3,4-dihydro-2H-chromen-4-yl]-4-(morpholin-4-yl)-8-(2,3,5-trichlorophenyl)-1,7-naphthyridine-3-carboxamide] | < 0.1 µg/mL | > 80% | 3.16 to 31.6 nM | 100% | < 0.1 µg/mL | 100% | 100% | < 3.16 nM | 
2 | O=C(N[C@H]1CCOc2ccccc21)c1cnc2c(-c3cccc(Cl)c3Cl)ncc(F)c2c1N1CCOCC1 [Example T1-7, 8-(2,3-dichlorophenyl)-N-[(4S)-3,4-dihydro-2H-1-benzopyran-4-yl]-5-fluoro-4-(morpholin-4-yl)-1,7-naphthyridine-3-carboxamide] | < 0.1 µg/mL | > 80% | 3.16 to 31.6 nM |  | < 0.1 µg/mL |  |  | < 3.16 nM | > 80%
3 | CN(C)c1c(C(=O)N[C@H]2CCOc3ccccc32)cnc2c(-c3cc(Cl)cc(Cl)c3)ncnc12 [Example T4-1, 4-(3,5-Dichlorophenyl)-N-[(4S)-3,4-dihydro-2H-chromen-4-yl]-8-(dimethylamino)-pyrido[3,2-d]pyrimidine-7-carboxamide] | < 0.1 µg/mL | > 80% | 31.6 to 316 nM |  | < 0.1 µg/mL |  | 80% | 3.16 to 31.6 nM | > 80%
4 | CN(C)c1c(C(=O)N[C@H]2CCOc3ccccc32)cnc2c(-c3cccc(Cl)c3Cl)cnnc12 [Example T6-1, 4-(2,3-Dichlorophenyl)-N-[(4S)-3,4-dihydro-2H-chromen-4-yl]-8-(dimethylamino)pyrido[3,2-c]pyridazine-7-carboxamide] | < 0.1 µg/mL | > 80% |  | 100% | < 0.1 µg/mL |  | 90% | 3.16 to 31.6 nM | 
5 | O=C(N[C@H]1CCOc2ccccc21)c1cnc2c(-c3cc(Cl)cc(Cl)c3)cnnc2c1N1CCOCC1 [Example T6-4, 4-(3,5-Dichlorophenyl)-N-[(4S)-3,4-dihydro-2H-chromen-4-yl]-8-(morpholin-4-yl)pyrido[3,2-c]pyridazine-7-carboxamide] |  |  | 31.6 to 316 nM | 80% |  |  | 90% | 31.6 to 316 nM | 
6 | O=C(N[C@H]1CCOc2ccccc21)c1cnc2c(-c3cccc(Cl)c3Cl)cncc2c1N1CCOCC1 [Example T2-3, 8-(2,3-Dichlorophenyl)-N-[(4S)-3,4-dihydro-2H-chromen-4-yl]-4-(morpholin-4-yl)-1,6-naphthyridine-3-carboxamide] | < 0.1 µg/mL | > 80% | 3.16 to 31.6 nM | 90% | < 0.1 µg/mL | 80% | 100% | 3.16 to 31.6 nM | 
7 | CN(C)c1c(C(=O)N[C@H]2CCOc3ccccc32)nnc2c(-c3cccc(Cl)c3Cl)cccc12 [Example T5-3, 8-(2,3-Dichlorophenyl)-N-[(4S)-3,4-dihydro-2H-chromen-4-yl]-4-(dimethylamino)cinnoline-3-carboxamide] | < 0.1 µg/mL | > 80% | 3.16 to 31.6 nM |  | < 0.1 µg/mL |  | 80% | < 3.16 nM | 
8 | COc1c(C(=O)N[C@H]2CCOc3ccccc32)nnc2c(-c3cccc(Cl)c3)cccc12 [Example T5-6, 8-(3-Chlorophenyl)-N-[(4S)-3,4-dihydro-2H-chromen-4-yl]-4-methoxycinnoline-3-carboxamide] |  |  | 31.6 to 316 nM |  | < 0.1 µg/mL |  | 80% | 3.16 to 31.6 nM | 
9 | COc1cnc(-c2cccc(Cl)c2Cl)c2ncc(C(=O)N[C@H]3CCOc4ccccc43)c(N(C)C)c12 [Example T1-11, 8-(2,3-dichlorophenyl)-N-[(4S)-3,4-dihydro-2H-1-benzopyran-4-yl]-4-(dimethylamino)-5-methoxy-1,7-naphthyridine-3-carboxamide] | < 0.1 µg/mL | > 80% | 31.6 to 316 nM |  | < 0.1 µg/mL |  |  | 3.16 to 31.6 nM | > 80%
10 | CN(C)c1c(C(=O)N[C@H]2CCOc3ccccc32)cnc2c(-c3cc(Cl)cc(Cl)c3)cnnc12 [Example T6-3, 4-(3,5-Dichlorophenyl)-N-[(4S)-3,4-dihydro-2H-chromen-4-yl]-8-(dimethylamino)pyrido[3,2-c]pyridazine-7-carboxamide] | < 0.1 µg/mL | > 80% | 31.6 to 316 nM | 90% | < 0.1 µg/mL |  |  | 3.16 to 31.6 nM | 
11 | O=C(N[C@H]1CCOc2ccccc21)c1cnc2c(-c3cccc(Cl)c3Cl)cnnc2c1N1CCOCC1 [Example T6-2, 4-(2,3-Dichlorophenyl)-N-[(4S)-3,4-dihydro-2H-chromen-4-yl]-8-(morpholin-4-yl)pyrido[3,2-c]pyridazine-7-carboxamide] |  | > 80% |  |  | < 0.1 µg/mL |  | 90% | 31.6 to 316 nM | 
12 | O=C(N[C@H]1CCOc2ccccc21)c1cnc2c(-c3cc(Cl)cc(Cl)c3)ccnc2c1N1CCOCC1 [Example T3-2, 8-(3,5-Dichlorophenyl)-N-[(4S)-3,4-dihydro-2H-chromen-4-yl]-4-(morpholin-4-yl)-1,5-naphthyridine-3-carboxamide] | < 0.1 µg/mL |  |  | 90% | < 0.1 µg/mL | 90% | 90% | 3.16 to 31.6 nM | 
13 | COc1cnc(-c2cccc(Cl)c2Cl)c2ncc(C(=O)N[C@H]3CCOc4ccccc43)c(N3CCOCC3)c12 [Example T1-14, 8-(2,3-dichlorophenyl)-N-[(4S)-3,4-dihydro-2H-1-benzopyran-4-yl]-5-methoxy-4-(morpholin-4-yl)-1,7-naphthyridine-3-carboxamide] | < 0.1 µg/mL | > 80% | 31.6 to 316 nM |  | < 0.1 µg/mL |  |  | 3.16 to 31.6 nM | > 80%
14 | CN(C)c1c(C(=O)N[C@H]2CCOc3ccccc32)nnc2c(-c3cc(Cl)cc(Cl)c3)cccc12 [Example T5-1, 8-(3,5-Dichlorophenyl)-N-[(4S)-3,4-dihydro-2H-chromen-4-yl]-4-(dimethylamino)cinnoline-3-carboxamide] | < 0.1 µg/mL | > 80% | 31.6 to 316 nM |  | < 0.1 µg/mL |  |  | < 3.16 nM | 
15 | O=C(N[C@H]1CCOc2ccccc21)c1cnc2c(-c3cc(Cl)cc(Cl)c3)cncc2c1N1CCOCC1 [Example T2-4, 8-(3,5-Dichlorophenyl)-N-[(4S)-3,4-dihydro-2H-chromen-4-yl]-4-(morpholin-4-yl)-1,6-naphthyridine-3-carboxamide] | < 0.1 µg/mL | > 80% | 31.6 to 316 nM |  | < 0.1 µg/mL |  |  | 3.16 to 31.6 nM | 
16 | O=C(N[C@H]1CCOc2ccccc21)c1cnc2c(-c3cc(Cl)cc(Cl)c3)ncnc2c1N1CCOCC1 [Example T4-2, 4-(3,5-Dichlorophenyl)-N-[(4S)-3,4-dihydro-2H-chromen-4-yl]-8-(morpholin-4-yl)pyrido[3,2-d]pyrimidine-7-carboxamide] | < 0.1 µg/mL | > 80% | 31.6 to 316 nM |  | < 0.1 µg/mL |  |  | 3.16 to 31.6 nM | > 80%
17 | CN(C)c1c(C(=O)N[C@H]2CCOc3ccccc32)nnc2c(-c3cccc(Cl)c3)cccc12 [Example T5-2, 8-(3-Chlorophenyl)-N-[(4S)-3,4-dihydro-2H-chromen-4-yl]-4-(dimethylamino)cinnoline-3-carboxamide] |  |  | 31.6 to 316 nM | 80% | < 0.1 µg/mL |  | 80% | 3.16 to 31.6 nM | 
18 | COc1cnc(-c2cc(F)cc(F)c2F)c2ncc(C(=O)N[C@H]3CCOc4ccccc43)c(N3CCOCC3)c12 [Example T1-9, N-[(4S)-3,4-dihydro-2H-1-benzopyran-4-yl]-5-methoxy-4-(morpholin-4-yl)-8-(2,3,5-trifluorophenyl)-1,7-naphthyridine-3-carboxamide] | < 0.1 µg/mL | > 80% | 31.6 to 316 nM |  |  |  |  | 3.16 to 31.6 nM | > 80%
19 | COc1c(C(=O)N[C@H]2CCOc3ccccc32)nnc2c(-c3ccc(F)c(F)c3)cccc12 [Example T5-8, 8-(3,4-Difluorophenyl)-N-[(4S)-3,4-dihydro-2H-chromen-4-yl]-4-methoxycinnoline-3-carboxamide] |  |  | 31.6 to 316 nM |  | < 0.1 µg/mL |  |  | 3.16 to 31.6 nM | 
20 | COc1ncc(-c2cccc(Cl)c2Cl)c2ncc(C(=O)N[C@H]3CCOc4ccccc43)c(N3CCOCC3)c12 [Example T2-11, 8-(2,3-dichlorophenyl)-N-[(4S)-3,4-dihydro-2H-1-benzopyran-4-yl]-5-methoxy-4-(morpholin-4-yl)-1,6-naphthyridine-3-carboxamide] | < 0.1 µg/mL | > 80% | 31.6 to 316 nM |  | < 0.1 µg/mL |  |  | < 3.16 nM | > 80%
